Assay results as given in PMC13289212, “HIVIL: A human in vitro inflammatory liver model recapitulates immune-associated drug effects with high predictivity” (NAM journal, 2025).
Values joined by “and” are separate entries in the source; they are usually repeats but may differ in a detail not shown here. Equal values may be shown once.

Assays:
[1] = Cell viability of iHeps mono-culture; type: cell-based; conditions: human
Source text: Human iPSC cell line iPS (IMR90)-4 was purchased from WiCell Research Institute (Madison, WI), and maintained with a feeder-free method according to the instruction from […] Technologies (Vancouver, BC, Canada). The protocol of differentiation towards iKCs and iHeps as described previously with slight modification ([Tasnim et al., 2019]; [Cai et al., 2012]), respectively. The re-optimized protocol to generate iKCs is discussed in Results section. More details are provided in Supplementary Methods. After differentiation, iKCs was harvested using 0.05 % trypsin-EDTA (Gibco, Waltham, Massachusetts, USA), while iHeps were dissociated with TrypLE^TM (Gibco). iHep suspension was further filtered through a 40 µm cell strainer to remove extracellular matrix clumps. Cell suspension was centrifuged at 1000 rpm for 5 min. For co-culture set up, tissue culture plates were coated with Rat tail collagen I (Gibco) diluted 100-fold in 0.02 N acetic acid, and incubated at 37 °C for 1 h and washed 3 times with PBS. According to the protocol optimized by [Tasnim et al. (2019)], iKCs was firstly seeded at a density of 14,000 per well on 96-well plate with Advanced DMEM (plus supplements) containing 5 % FBS. On the following day, iHeps were added at a density of 35,000 per well in Williams’ Medium E (plus supplements) (iHep: iKCs ratio = 2.5: 1). […]

IL-6 [2] = experiment: IL-6 ELISA in HIVIL (iKCs co-cultured with iHeps, LPS, 48 hr); type: cell-based, human; conditions: HIVIL co-treated with TVX and LPS
iHeps = experiment: RNA-Seq of iHeps from mono-culture and HIVIL; type: cell-based, human
Source text: Subsequent analyses compared gene fold-changes of treated samples against their respective vehicle controls: "m" and "c" indicate mono- and co-culture, and "–" and "+" represent the absence or presence of LPS. […] However, this is only applicable for co-cultures where downstream effects can be traced back to cytokine changes, and not in monocultures where significant upstream cytokine changes are not observed.
RNA extraction was done using TRIzol and analyzed on a Tapestation 4200 to determine RNA Integrity Number (RIN). Only samples with RIN > 8 were sequenced. Illumina Stranded mRNA multiplexing was done with unique 96 dual indices, and all samples sequenced on the same lane of NovaSeq 6000 S4 flowcell. Data normalization was performed using DESeq2 v1.32.0 ([Love et al., 2014]) on the R programming language v4.1.0 ([R Core Team, 2021]; [R Team, 2021]). Gene enrichment analysis was done with fgsea v1.18 ([Korotkevich et al., 2021]) with gene sets downloaded from MSigDB and KEGG pathway visualization done via pathview v1.32 ([Kanehisa et al., 2021]; [Luo and Brouwer, 2013]). Other plots were produced using ggplot2 v3.3.5 and scatterplot3d v0.3-41 ([Ligges and Maechler, 2003]). The RNA-Seq dataset has been deposited in NCBI under accession number GSE189320.
RNA seq and analysis: After 48 hr of drug treatment, iHeps cultured in mono-culture and HIVIL were both subjected to TrypLE^TM dissociation, and subsequently sorted with magnetic separation with the CD163 Microbead kit (Miltenyi Biotec, Bergisch Gladbach, Germany) to obtain only iHeps. Flow-through was collected, pelleted down and snap-frozen in liquid nitrogen, before storage at -80°C. Lysates were sent to the Genome Research Informatics and Data Science platform (Agency for Science, Technology and Research, Singapore). RNA extraction was done using TRIzol and analyzed on a Tapestation 4200 to determine RNA Integrity Number (RIN). All sequenced samples included for further analysis had RIN > 8. Illumina Stranded mRNA multiplexing was done with unique 96 dual indices, and all samples sequenced on the same lane of NovaSeq 6000 S4 flowcell. Sequenced reads were trimmed for adaptor sequence using Trim Galore v0.6.4, then aligned to human genome build GRCh38 using STAR_2.6.1d. Aligned reads are summarized into count matrices using featureCounts v1.6.4 with the gene annotation file from GENCODE v37.
Data normalization was performed using DESeq2 v1.32.0 (Love et al. 2014) on the R programming language v4.1.0 (Core Team 2021; Team 2021). Gene enrichment analysis was done with fgsea v1.18 (Korotkevich et al. 2021) with gene sets downloaded from MSigDB and KEGG pathway visualization done via pathview v1.32 (Kanehisa et al. 2021; Luo and Brouwer 2013). Other plots were produced using ggplot2 v3.3.5 and scatterplot3d v0.3-41 (Ligges and Maechler 2003). The RNA-Seq dataset has been deposited in NCBI under accession number GSE189320.

IL-6 [3] = experiment: IL-6 ELISA in iPSC(F4)-derived HIVIL; type: cell-based, human
Procedure: Enzyme-linked immunosorbent assay (ELISA) for measurement of cytokines: Interleukin-6 (IL-6), interleukin-10 (IL-10) and tumor necrosis factor alpha (TNFα) levels in the media were measured using the corresponding human-based ELISA kits (Abcam, Cambridge, United Kingdom) according to manufacturer’s instructions. The cytokine production from dosed cells was normalized with the viability value from the same well. The normalized cytokine level upon drug treatments was further presented as percentage of DMSO+LPS. Normalization to viability per well ensures that any changes in cytokines are not due to changes in cell numbers upon drug treatment and normalization to DMSO+LPS allows better comparison between different batches of experiments. This normalization approach has been used in previous studies (Rose et al. 2016).

TNFα = conditions: ref Shaw et al. 2010; Zou et al. 2009; Bekker et al. 2012; Gandhi et al. 2013; Heidari et al. 2019; cited from earlier work
IL-6 [4] = tested on: IL-6; set-up: method as in ref Hassan et al. 2016; Giustarini et al. 2019; Higuchi et al. 2012; Dik et al. 2018; conditions: ref Hassan et al. 2016; Giustarini et al. 2019; Higuchi et al. 2012; Dik et al. 2018; cited from earlier work

N[C@@H]1[C@H]2CN(c3nc4c(cc3F)c(=O)c(C(=O)O)cn4-c3ccc(F)cc3F)C[C@@H]12 [TVX, Trovafloxacin]
viability [1]: 53.7% | IL-6 decline after 24 h (IL-6 [2]): 57.3% | pro-inflammatory cytokine and chemokine mRNA expression (iHeps; LPS-treated co-cultures): significantly increased | FADD upregulation (iHeps; cTVX+, 25 µM): 1.7 fold | TNFα transcription increase (iHeps; cTVX+, 25 µM): 2.3 fold | cIAP-2 upregulation (iHeps; cTVX+, 25 µM): 3 fold | caspase 3 upregulation (iHeps; cTVX+, 25 µM): 1.8 fold | IL-8 transcription increase (iHeps; co-culture, cTVX+ vs. cVeh+, 25 µM): 3.2 fold | TNFα transcription (iHeps; mTVX+ compared to mVeh+, 25 µM): 0.9 fold | cIAP-2 upregulation (iHeps; mTVX+, 25 µM): 1.5 fold | IL-8 transcription increase (iHeps; mono-culture, mTVX+ vs. mVeh+, 25 µM): 1.3 fold | IL-6 transcription in iHeps (iHeps; regardless of culture conditions, result in words): slightly decreased | increase in IL-6 (IL-6 [3]; 6.25 μM): 1.2 fold | inhibition of IL-6 production (IL-6 [3]; higher concentrations): 80% and 97% | Reported in-vivo (murine) responses: TNFα (TNFα): TNFα↑ | Reported in-vivo (murine) responses: IL-6 (IL-6 [4]): IL-6↑
